Values after ≈ are worked out from the molar mass of the structure shown.

Assay type in all cases: cell-based
The subject of one test is E. faecium EFMY-28. Description: In vitro antibacterial activity (MIC), Japan Society of Chemotherapy Standard. Conditions: Enterococcus faecium, EFMY28; inoculated cells 10⁶ cells/ml. The method, boiled down: (§1)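 Inoculum 10⁶ cells/ml; JSC standard MIC, µg/ml read-out; 10% horse blood added to medium for designated strains.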
The next test relates to S. viridans America. The test is described as above. Conditions: Streptococcus viridans; inoculated cells 10⁶ cells/ml; medium supplemented with 10% horse blood. The essentials: as §1
In test [1] the test system is Mycobacterium smegmatis IFO 3153. Kind of test: Antibacterial effect against specific bacteria (MIC). Conditions: Mycolicibacterium smegmatis, IFO3153; same manner as Experimental Example 1. The protocol: (§2) The in vitro antibacterial activity (minimum inhibitory concentration, MIC, µg/ml) of the test compounds was determined according to Japan Society of Chemotherapy Standard [Chemotherapy, vol. 29, pp 76-79 (1981)].
(§3) In the same manner as in Experimental Example 1, the antibacterial effect against specific bacteria such as Chlamydia, Mycoplasma and acid-fast bacteria and anaerobic bacteria was determined.

In test [2] the test system is Chlamydia trachomatis D/UW-3Cx. The test is described as above. Conditions: same manner as Experimental Example 1. How it is done:
as §2, §3

Test [3] deals with Mycoplasma pneumoniae ATCC 29343. The test is described as above. Conditions: ATCC29343, same manner as Experimental Example 1. The protocol: as §2, §3
The test system of test [4] is Mycobacterium smegmatis IFO 13167. Described as above. Conditions: Mycolicibacterium smegmatis, IFO13167; same manner as Experimental Example 1. The protocol:
as §2, §3

The subject of the next test is B. fragilis BFY-18. The description is as above. Conditions: Bacteroides fragilis, BFY18; same manner as Experimental Example 1. The protocol:
as §2, §3

Test [5] has as its system Bacteroides fragilis GAI 5560. Described as above. Conditions: GAI5560, same manner as Experimental Example 1. The protocol:
as §2, §3

In test [6] the test system is Ureaplasma urealyticum ATCC 27618. The test is described as above. Conditions: ATCC27618, same manner as Experimental Example 1. The protocol:
as §2, §3

One may read the MIC as the smallest concentration in the dilution series that meets the test's criterion for growth inhibition. A high value points to a need for much substance. With `CC1COc2c(N3CCN(C)CC3)c(F)cc3c(=O)c(C(=O)O)cn1c23` (stereo not drawn) [Comp. Ex. 2, 9-fluoro-2,3-dihydro-3-methyl-10-(4-methyl-1-piperazinyl)-7-oxo-7H-pyrido [1. 2. 3-de) [1.4] benzoxazine-6-carboxylic acid, reference compound], the minimum inhibitory concentration (MIC) in the test on E. faecium EFMY-28 is 3.13 µg/mL (≈ 8.66 µM); against S. viridans America it was 3.13 µg/mL (≈ 8.66 µM); in [1], 0.39 µg/mL (≈ 1.08 µM); in test [2], 0.39 µg/mL (≈ 1.08 µM); in test [3] it was 1.56 µg/mL (≈ 4.32 µM); in test [4], 0.39 µg/mL (≈ 1.08 µM). Moreover, the MIC against B. fragilis BFY-18 came out at 1.56 µg/mL (≈ 4.32 µM); in test [5], 1.56 µg/mL (≈ 4.32 µM); in test [6], 3.13 µg/mL (≈ 8.66 µM).

These data come from EP0677522A1, “8-METHOXYQUINOLONECARBOXYLIC ACID DERIVATIVE” (priority 1992, dated 1994).
